Experimental data taken from US9732075B2, “Benzimidazole-proline derivatives” (IDORSIA PHARMACEUTICALS LTD, priority 2012, dated 2017).

Legend:
human orexin-1 receptor = human orexin-1 receptor (Homo sapiens (Human), UniProt O43613); assay: In vitro assay: intracellular calcium measurements (FLIPR), antagonistic activity; type: cell-based; details: CHO cells expressing human orexin-1 receptor, orexin-A agonist, geometric mean, read-out: IC50 Ox1
In short: (§1)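 hOX1R/hOX2R CHO cells, fluo-4 AM + 5 mM probenecid, 50 min 37 °C then 30 min RT. Cpd 120 min, then orexin-A 3 nM final; FLIPR peak height vs vehicle. IC50, geometric mean of repeats.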

human orexin-2 receptor = human orexin-2 receptor (Homo sapiens (Human), UniProt O43614); assay: as above; type: cell-based; details: CHO cells expressing human orexin-2 receptor, orexin-A agonist, geometric mean, read-out: IC50 Ox2
Chain of human orexin-2 receptor (O43614 whole entry): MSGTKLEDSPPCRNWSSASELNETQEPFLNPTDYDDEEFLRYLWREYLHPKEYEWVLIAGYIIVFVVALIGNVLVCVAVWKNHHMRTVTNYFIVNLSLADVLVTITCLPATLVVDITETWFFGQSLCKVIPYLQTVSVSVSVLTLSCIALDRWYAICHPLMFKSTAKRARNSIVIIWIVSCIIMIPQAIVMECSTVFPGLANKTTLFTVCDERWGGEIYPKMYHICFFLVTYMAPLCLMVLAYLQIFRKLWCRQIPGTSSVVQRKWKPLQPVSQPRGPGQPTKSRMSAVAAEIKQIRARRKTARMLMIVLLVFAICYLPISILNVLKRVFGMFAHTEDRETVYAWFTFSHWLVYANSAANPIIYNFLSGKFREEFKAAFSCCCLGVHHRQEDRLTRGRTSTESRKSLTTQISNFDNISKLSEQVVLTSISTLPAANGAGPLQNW
In short: as §1

Chain of human orexin-1 receptor (O43613 whole entry): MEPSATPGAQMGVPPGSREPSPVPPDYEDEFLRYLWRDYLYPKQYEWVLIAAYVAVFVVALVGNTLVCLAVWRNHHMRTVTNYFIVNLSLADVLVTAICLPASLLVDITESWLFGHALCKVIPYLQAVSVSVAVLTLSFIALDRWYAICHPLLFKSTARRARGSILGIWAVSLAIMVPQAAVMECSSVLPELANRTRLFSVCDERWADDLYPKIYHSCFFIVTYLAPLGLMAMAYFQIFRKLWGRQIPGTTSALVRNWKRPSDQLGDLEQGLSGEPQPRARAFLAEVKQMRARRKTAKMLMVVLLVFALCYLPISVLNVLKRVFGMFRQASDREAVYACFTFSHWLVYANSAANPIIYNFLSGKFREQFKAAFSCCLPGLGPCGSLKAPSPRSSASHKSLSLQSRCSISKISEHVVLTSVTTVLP

Compound	IC50 (human orexin-1 receptor) [nM]	IC50 (human orexin-2 receptor) [nM]
Cc1nc(C(=O)N2CC(F)(F)C[C@H]2c2nc3c(C)cccc3[nH]2)c(-c2ccccc2)s1 [Ex. 2.4]	425	131
Cc1ccc(-n2nccn2)c(C(=O)N2C[C@H](F)C[C@H]2c2nc3c(C)c(Cl)ccc3[nH]2)c1 [Ex. 2.5]	6	12
Cc1ccc(-n2nccn2)c(C(=O)N2CC(F)(F)C[C@H]2c2nc3c(C)c(Cl)ccc3[nH]2)c1 [Ex. 2.6]	52	59
Cc1nc(C(=O)N2C[C@H](F)C[C@H]2c2nc3c(C)cccc3[nH]2)c(-c2cccc(Cl)c2)s1 [Ex. 2.9]	17	18
CO[C@@H]1C[C@@H](c2nc3c(C)cccc3[nH]2)N(C(=O)c2nc(C)sc2-c2ccccc2)C1 [Ex. 3.4]	44	14
CO[C@H]1C[C@@H](c2nc3c(C)c(Cl)ccc3[nH]2)N(C(=O)c2nc(C)sc2-c2ccccc2)C1 [Ex. 3.5]	109	74
CO[C@@H]1C[C@@H](c2nc3c(C)c(Cl)ccc3[nH]2)N(C(=O)c2nc(C)sc2-c2ccccc2)C1 [Ex. 3.6]	5	4
CO[C@H]1C[C@@H](c2nc3c(C)c(Cl)ccc3[nH]2)N(C(=O)c2nc(C)sc2-c2cccc(Cl)c2)C1 [Ex. 3.8]	22	12
CO[C@@H]1C[C@@H](c2nc3c(C)c(Cl)ccc3[nH]2)N(C(=O)c2nc(C)sc2-c2cccc(Cl)c2)C1 [Ex. 3.9]	1	2
COc1ccc(-n2nccn2)c(C(=O)N2C[C@H](OC)C[C@H]2c2nc3ccc(Cl)c(C)c3[nH]2)c1F [Ex. 3.11]	6	9
CO[C@@H]1C[C@@H](c2nc3ccc(Cl)c(C)c3[nH]2)N(C(=O)c2c(-n3nccn3)ccc(C)c2F)C1 [Ex. 3.13]	16	7
CO[C@@H]1C[C@@H](c2nc3ccc(Cl)c(C)c3[nH]2)N(C(=O)c2c(C)cccc2-n2nccn2)C1 [Ex. 3.14]	674	23
CO[C@@H]1C[C@@H](c2nc3ccc(Cl)c(C)c3[nH]2)N(C(=O)c2cc(C)c(C)cc2-n2nccn2)C1 [Ex. 3.16]	24	2
CO[C@@H]1C[C@@H](c2nc3ccc(Cl)c(C)c3[nH]2)N(C(=O)c2cc(F)ccc2-n2nccn2)C1 [Ex. 3.18]	97	4
COc1ccc2nc([C@@H]3C[C@@H](OC)CN3C(=O)c3cc(Cl)ccc3-n3nccn3)[nH]c2c1 [Ex. 3.19]	1930	21
COc1ccc2nc([C@@H]3C[C@@H](OC)CN3C(=O)c3ccc(C)cc3-n3nccn3)[nH]c2c1 [Ex. 3.21]	2510	33
COc1ccc2nc([C@@H]3C[C@@H](OC)CN3C(=O)c3cc(C)c(C)cc3-n3nccn3)[nH]c2c1 [Ex. 3.22]	576	9
CO[C@H]1CN(C(=O)c2nc(C)sc2-c2ccccc2)C(C)(c2nc3c(C)c(Cl)ccc3[nH]2)C1 (some centres unmarked) [Ex. 3.24]	5	12

Compound	IC50 (human orexin-1 receptor) [nM]	IC50 (human orexin-2 receptor) [nM]
CO[C@H]1CN(C(=O)c2cc(C)ccc2-n2nccn2)C(C)(c2nc3c(C)c(Cl)ccc3[nH]2)C1 (some centres unmarked) [Ex. 3.25]	5	7
CO[C@H]1CN(C(=O)c2cc(C)ccc2-n2nccn2)C(C)(c2nc3c(C)cccc3[nH]2)C1 (some centres unmarked) [Ex. 3.26]	50	66
CO[C@H]1CN(C(=O)c2nc(C)sc2-c2cccc(Cl)c2)C(C)(c2nc3c(C)cccc3[nH]2)C1 (some centres unmarked) [Ex. 3.28]	10	19
CO[C@H]1CN(C(=O)c2nc(C)sc2-c2ccccc2)C(C)(c2nc3c(C)cccc3[nH]2)C1 (some centres unmarked) [Ex. 3.29]	28	20
CO[C@@H]1C[C@@H](c2nc3ccc(Cl)c(C)c3[nH]2)N(C(=O)c2nc(C)sc2-c2ccc(C)c(C)c2)C1 [Ex. 3.34]	0.9	8
CO[C@@H]1C[C@@H](c2nc3ccc(Cl)c(C)c3[nH]2)N(C(=O)c2nc(C)sc2-c2ccc(C)cc2)C1 [Ex. 3.36]	5	9
COc1ccc(-c2sc(C)nc2C(=O)N2C[C@H](OC)C[C@H]2c2nc3ccc(Cl)c(C)c3[nH]2)cc1 [Ex. 3.37]	8	8
CO[C@@H]1C[C@@H](c2nc3ccc(Cl)c(C)c3[nH]2)N(C(=O)c2ccccc2-c2ccc(C)c(C)c2)C1 [Ex. 3.38]	6	13
CO[C@@H]1C[C@@H](c2nc3ccc(Cl)c(C)c3[nH]2)N(C(=O)c2ccccc2-c2ccccc2)C1 [Ex. 3.39]	74	57
CO[C@@H]1C[C@@H](c2nc3ccc(Cl)c(C)c3[nH]2)N(C(=O)c2nc(N(C)C)sc2-c2cccc(Cl)c2)C1 [Ex. 3.41]	0.7	7
CO[C@H]1CN(C(=O)c2c(F)cccc2-n2nccn2)C(C)(c2nc3c(C)c(Cl)ccc3[nH]2)C1 (some centres unmarked) [Ex. 3.42]	193	395
CO[C@H]1CN(C(=O)c2cc(F)ccc2-n2nccn2)C(C)(c2nc3c(C)c(Cl)ccc3[nH]2)C1 (some centres unmarked) [Ex. 3.43]	10	13
CO[C@H]1CN(C(=O)c2cc(Cl)ccc2-n2nccn2)C(C)(c2nc3c(C)c(Cl)ccc3[nH]2)C1 (some centres unmarked) [Ex. 3.44]	3	6
CO[C@H]1CN(C(=O)c2ccccc2-n2nccn2)C(C)(c2nc3c(C)c(Cl)ccc3[nH]2)C1 (some centres unmarked) [Ex. 3.45]	16	19
CO[C@H]1CN(C(=O)c2c(-n3nccn3)ccc(C)c2F)C(C)(c2nc3c(C)c(Cl)ccc3[nH]2)C1 (some centres unmarked) [Ex. 3.47]	225	471
CO[C@H]1CN(C(=O)c2ccc(C)cc2-n2nccn2)C(C)(c2nc3c(C)c(Cl)ccc3[nH]2)C1 (some centres unmarked) [Ex. 3.49]	13	18
CO[C@H]1CN(C(=O)c2cc(C(F)(F)F)ccc2-n2nccn2)C(C)(c2nc3c(C)c(Cl)ccc3[nH]2)C1 (some centres unmarked) [Ex. 3.50]	232	252

Further compounds by falling IC50 (human orexin-1 receptor), results first:

IC50 (human orexin-1 receptor) [nM]	IC50 (human orexin-2 receptor) [nM]	Compound
3890	67	COc1ccc2nc([C@@H]3C[C@@H](OC)CN3C(=O)c3cc(F)ccc3-n3nccn3)[nH]c2c1 [Ex. 3.23]
1860	40	COc1ccc(-n2nccn2)c(C(=O)N2C[C@H](OC)C[C@H]2c2nc3ccc(OC)cc3[nH]2)c1 [Ex. 3.20]
1290	255	CO[C@H]1C[C@@H](c2nc3c(C)cccc3[nH]2)N(C(=O)c2nc(C)sc2-c2ccccc2)C1 [Ex. 3.3]
368	51	CO[C@@H]1C[C@@H](c2nc3ccc(Cl)c(C)c3[nH]2)N(C(=O)c2cc(C(F)(F)F)ccc2-n2nccn2)C1 [Ex. 3.17]
223	288	COc1ccc(-n2nccn2)c(C(=O)N2C[C@H](OC)CC2(C)c2nc3c(C)c(Cl)ccc3[nH]2)c1F (some centres unmarked) [Ex. 3.46]
96	4	CO[C@@H]1C[C@@H](c2nc3ccc(Cl)c(C)c3[nH]2)N(C(=O)c2ccc(C)cc2-n2nccn2)C1 [Ex. 3.15]
94	44	CO[C@H]1CN(C(=O)c2cc(OC(F)(F)F)ccc2-n2nccn2)C(C)(c2nc3c(C)c(Cl)ccc3[nH]2)C1 (some centres unmarked) [Ex. 3.51]
70	51	Cc1nc(C(=O)N2CC(F)(F)C[C@H]2c2nc3c(C)c(Cl)ccc3[nH]2)c(-c2ccccc2)s1 [Ex. 2.8]
69	124	Cc1ccc(-n2nccn2)c(C(=O)N2C[C@H](F)C[C@H]2c2nc3c(C)cccc3[nH]2)c1 [Ex. 2.11]
67	61	Cc1nc(C(=O)N2C[C@H](F)C[C@H]2c2nc3c(C)cccc3[nH]2)c(-c2ccccc2)s1 [Ex. 2.3]
66	42	Cc1nc(C(=O)N2C[C@@H](F)C[C@H]2c2nc3c(C)c(Cl)ccc3[nH]2)c(-c2ccccc2)s1 [Ex. 2.7]
45	5	CO[C@@H]1C[C@@H](c2nc3ccc(Cl)c(C)c3[nH]2)N(C(=O)c2cc(Cl)ccc2-n2nccn2)C1 [Ex. 3.10]
13	6	CO[C@@H]1C[C@@H](c2nc3c(C)c(Cl)ccc3[nH]2)N(C(=O)c2cc(C)ccc2-n2nccn2)C1 [Ex. 3.2]
13	1	COc1ccc(-n2nccn2)c(C(=O)N2C[C@H](OC)C[C@H]2c2nc3ccc(Cl)c(C)c3[nH]2)c1 [Ex. 3.12]
9	5	CO[C@@H]1C[C@@H](c2nc3c(C)cccc3[nH]2)N(C(=O)c2nc(C)sc2-c2cccc(Cl)c2)C1 [Ex. 3.7]
8	7	CO[C@@H]1C[C@@H](c2nc3ccc(Cl)c(C)c3[nH]2)N(C(=O)c2ccccc2-c2ccc(F)c(C)c2)C1 [Ex. 3.40]
5	8	Cc1nc(C(=O)N2C[C@H](F)C[C@H]2c2nc3c(C)c(Cl)ccc3[nH]2)c(-c2cccc(Cl)c2)s1 [Ex. 2.10]
5	16	CO[C@H]1CN(C(=O)c2nc(C)sc2-c2cccc(Cl)c2)C(C)(c2nc3c(C)c(Cl)ccc3[nH]2)C1 (some centres unmarked) [Ex. 3.27]
5	4	CO[C@H]1CN(C(=O)c2nc(C)sc2-c2cccc(Cl)c2)[C@](C)(c2nc3c(C)c(Cl)ccc3[nH]2)C1 [Ex. 3.31]
3	4	CO[C@@H]1C[C@@H](c2nc3ccc(Cl)c(C)c3[nH]2)N(C(=O)c2nc(C)sc2-c2ccc(Cl)cc2)C1 [Ex. 3.35]
2	2	CO[C@H]1CN(C(=O)c2cc(C)ccc2-n2nccn2)[C@](C)(c2nc3c(C)c(Cl)ccc3[nH]2)C1 [Ex. 3.30]
0.9	5	CO[C@@H]1C[C@@H](c2nc3ccc(Cl)c(C)c3[nH]2)N(C(=O)c2nc(C)sc2-c2cccc(C)c2)C1 [Ex. 3.32]
0.8	10	CO[C@@H]1C[C@@H](c2nc3ccc(Cl)c(C)c3[nH]2)N(C(=O)c2nc(N(C)C)sc2-c2ccc(C)c(C)c2)C1 [Ex. 3.33]
